Test results published in patent publication US9097706B2, “Insect-based ex vivo model for testing blood-brain barrier penetration and method for exposing insect brain to chemical compounds” (ENTOMOPHARM APS, priority 2009, dated 2015).
Where two headings read alike, the source gives them in different places. One block for each compound: values may come before it.

Key:
[1] = tested on: grasshopper BBB (locusta migratoria brain in its cuticle shell)
Protocol: 1. […] The insects may be obtained from local suppliers or bred in house. The grasshoppers were reared under crowded conditions at 28° C. and a 12:12 dark:light photocycle and fed fresh grass and bran. Before experiments the grasshoppers were fed ecologically cultivated wheat for two weeks. Animals used are adult males (in some experiments females) between two to four weeks after adult emergence. A cut is made through the frontal part of the locust head comprising the most frontal parts including the antennae, the compound eyes, the brain and all neural connections between the brain and the antennae and the eyes. This preparation in its cuticle shell is placed in a well of a microtitre plate containing the test solution. After various times of exposure the preparation is washed in saline and the brain is dissected under microscope with fine forceps. The neural lamella surrounding the brain is removed in saline and the brain is then […] in saline, centrifuged and the supernatant frozen until analyses. Drug concentration is analysed by HPLC, LC/MSMS or other methods.
(§1) A cut was made through the frontal part of the head of adult female locusta migratoria. Each brain in its cuticle shell was placed in a 0.12 mg/ml mianserin solution for 5 minutes. The brain was prepared in saline and removed from the cuticle shell and three brains were placed in each test tube containing 100 ul distilled H2O. 200 ul ACN was added to each tube and the tubes were placed in a sonicator and the brains were disintegrated by approximately 5 seconds of sonication. The samples containing the disintegrated brains were centrifuged for 5 minutes (10000 g at 4° C.).
as §1, with “shell. The brains were washed in Saline. After wash” for “shell and”, “sonication.” for “sonication. The samples containing the disintegrated brains were centrifuged for 5 minutes (10000 g at 4° C.).”
A cut was made through the frontal part of the head of adult female locusta migratoria. Each brain in its cuticle shell was placed in a 0.12 mg/ml mianserin solution for 5 minutes. The brain was prepared in saline and removed from the cuticle shell. To stain the neural lamella Evans Blue was added and the neural lamella was removed. Three brains were placed in each test tube containing 100 ul distilled H2O. 200 ul ACN was added to each tube and the tubes were placed in a sonicator and the brains were disintegrated by approximately 5 seconds of sonication.
A cut was made through the frontal part of the head of the adult locusta migratoria. Each brain in its cuticle shell was placed in a 0.9 mg/ml mianserin solution for 5 minutes. The brain was prepared in saline and removed from the cuticle shell. Three brains were placed in a test tube containing 100 ul PBS. 200 ul ACN was added to each tube. The tubes were placed in a sonicator and the brains were disintegrated by approximately 5 seconds of sonication.
A cut was made through the frontal part of the head of the adult locusta migratoria. Each brain was placed for 5 minutes in a microtiter well with an approximately 0.95 mg/ml solution of mianserin. To stain the neural lamella Evans Blue was added and the neural lamella was removed. Two brains are placed in each test tube and 100 ul distilled H2O and 200 ul ACN is added. The tubes were placed in a sonicator and the brains were disintegrated by approximately 5 seconds of sonication.
A cut was made through the frontal part of the head of the adult locusta migratoria. […] To stain the neural lamella Evans Blue was added and the neural lamella was removed.

[2] = tested on: locust brain barrier; test: Visual inspection of Evans Blue permeation through the locust brain barrier; format: in vitro ADME, Locusta migratoria; details: 5 minutes in Evans Blue; neural lamella removed
Protocol: A cut was made through the frontal part of the head of the adult locusta migratoria. Each brain was placed for 5 minutes in a microtiter well containing a mixture of Evans Blue. The neural lamella was removed from the brain.

[3] = tested on: Blattodea BBB; details: for average concentration in brain supernatant measured by LCMS: Blattodea
Protocol: A cut was made through the frontal part of the head of the Blattodea. Each brain was placed for 5 minutes in a microtiter well with an approximately 1.0 mg/ml solution of trazodone. To stain the neural lamella Evans Blue was added and the neural lamella was removed. Two brains are placed in each test tube and 50 ul distilled H2O and 100 ul ACN is added. The tubes were placed in a sonicator and the brains were disintegrated by approximately 5 seconds of sonication.

[4] = Locusta migratoria, 5 min, 0.9 mg/ml

Structure (SMILES): CN1CCN2c3ccccc3Cc3ccccc3C2C1 (stereo not shown) [mianserin]
[with lamella]/[without lamella] ratio ([1]; Locusta migratoria, 5 min, 0.1 mg/ml): 1.7
[with lamella]/[without lamella] ratio [1, 4]: 2.3
average concentration in brain supernatant measured by LCMS ([1]; Locusta migratoria, 5 min, 0.95 mg/ml): 1439 ng/mL

Structure (SMILES): Cc1cc(-c2ccc(/N=N/c3ccc4c(S(=O)(=O)O)cc(S(=O)(=O)O)c(N)c4c3O)c(C)c2)ccc1/N=N/c1ccc2c(S(=O)(=O)O)cc(S(=O)(=O)O)c(N)c2c1O [Evans Blue]
permeation through the locust brain barrier (visual signs in brain) [2]: no significant permeation

Structure (SMILES): Cn1c(=O)c2c(ncn2C)n(C)c1=O [caffeine]
average concentration in brain supernatant measured by LCMS ([3]; approximately 0.1 mg/ml solution, 5 minutes, neural lamella removed, two brains per tube): 152 ng/mL
average concentration in brain supernatant measured by LCMS ([3]; approximately 1.0 mg/ml solution, 5 minutes, neural lamella removed, two brains per tube): 1028 ng/mL
permeation of the Blattodea BBB (in words) ([3]; conclusion from Examples AB-AG): permeate the Blattodea BBB to a much larger extent than atenolol
average concentration in brain supernatant measured by LCMS ([1]; approximately 0.78 mg/ml solution, 5 minutes, neural lamella removed, two brains per tube): 1533 ng/mL
permeation of the grasshopper BBB (in words) ([1]; conclusion from the examples): permeate the grasshopper BBB to a much larger extent than peripheral acting drugs

More lines, main results first:

average concentration in brain supernatant measured by LCMS ([3]; 5 min, 0.1 mg/ml): 127 ng/mL
average concentration in brain supernatant measured by LCMS ([3]; 5 min, 1 mg/ml): 768 ng/mL
average concentration in brain supernatant measured by LCMS [1, 4]: 1317 ng/mL
Structure (SMILES): O=c1n(CCCN2CCN(c3cccc(Cl)c3)CC2)nc2ccccn12 [trazodone]
permeation of the Blattodea BBB (in words) [3]: permeate the Blattodea BBB to a much larger extent than atenolol
permeation of the grasshopper BBB (in words) [1]: permeate the grasshopper BBB to a much larger extent than peripheral acting drugs

average concentration in brain supernatant measured by LCMS ([1]; Locusta migratoria, 5 min, 0.72 mg/ml): 674 ng/mL
Structure (SMILES): CC(C)NCC(O)COc1cccc2ccccc12 (stereo not shown) [propranolol]
permeation of the grasshopper BBB (in words) [1]: permeate the grasshopper BBB to a much larger extent than peripheral acting drugs
